Among the test systems are DLD-1; DMS-114; DMS-273; LXFL 529; M19-MEL; RXF 631; HOP-18; BT-549; MDA-N.
Experiment in all cases: DTP human tumour cell line panel, 48 h

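Step 1: Grow cells in 96-well plates. Step 2: Expose to compound for 48 hours at 5 concentrations. Step 3: Interpolate endpoints linearly; if unreached, use highest concentration. At the GI50, growth is halved.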 Activity calls are given as the source filed them. Rule as the data show it: active = GI50 up to about 1.1 µM and inactive = higher.

As to `CCOc1ccc(NC(=O)CC2SC(Nc3ccc(C)cc3)=NC2=O)cc1` (centres undefined), the GI50 with DLD-1, with DMS-114, in the experiment on DMS-273, in the experiment with LXFL 529, in the experiment on M19-MEL and in the experiment with RXF 631 was > 100 µM (inactive) in each case.
As for `Nc1ncnc2c1N=CN(Oc1ccccc1)N2`, the GI50 in the experiment with DLD-1, with DMS-114, in the experiment on DMS-273, in the experiment with LXFL 529, with M19-MEL and in the experiment with RXF 631 was > 100 µM (inactive) each time.
Take `CNS(=O)(=O)NN(C)S(=O)(=O)c1ccc2ccccc2c1`: the GI50 in the experiment with DLD-1, with DMS-114, in the experiment with DMS-273, with LXFL 529, in the experiment with M19-MEL and in the experiment with RXF 631 was > 100 µM (inactive) throughout.
Turning to `CCOC(=O)c1cn2c([nH]c3ccccc32)c(C#N)c1=O`, the GI50 in the experiment on DLD-1 was 99.5 µM (inactive); in the experiment on DMS-273, > 100 µM (inactive); in the experiment with HOP-18 it was > 100 µM (inactive); in the experiment on LXFL 529 it was > 100 µM (inactive); in the experiment on M19-MEL, > 100 µM (inactive); in the experiment on RXF 631, > 100 µM (inactive).
Take `COc1c(Sc2ccccc2)cc(Sc2ccccc2)c2cccnc12`: the GI50 with DLD-1 is 27.9 µM (inactive); in the experiment with DMS-114, 24.1 µM (inactive); in the experiment on DMS-273, 20 µM (inactive); with HOP-18 it was 0.0263 µM (active); with LXFL 529, 30.8 µM (inactive); with M19-MEL, 28.9 µM (inactive). For the same molecule, the GI50 in the experiment with RXF 631 is 27.9 µM (inactive).
For the molecule `COc1ccc2cc3nc(O)cc(O)c3cc2c1OC`, the GI50 with DMS-114, with HOP-18, with LXFL 529, in the experiment on M19-MEL and in the experiment with RXF 631 was > 100 µM (inactive) throughout.
As to `COC1OC(COC(C)=O)C(OC(C)=O)C(OC(C)=O)C1NC(=O)N(CCCl)N=O` (centres undefined), the GI50 with DLD-1, in the experiment on DMS-114, in the experiment with DMS-273, with HOP-18, in the experiment with LXFL 529 and with M19-MEL was > 100 µM (inactive) each time. In the experiment on RXF 631, the GI50 is > 100 µM (inactive).
Regarding `C=C(C(=C)N1N=NC2C3CCC(C3)C21)N1N=NC2C3CCC(C3)C21` (centres undefined), the GI50 in the experiment with DLD-1, in the experiment with DMS-114, with DMS-273, with HOP-18, with LXFL 529 and in the experiment with M19-MEL was > 100 µM (inactive) throughout. Also, in the experiment with RXF 631, the GI50 was > 100 µM (inactive).
`CCCSS[C@H]1NC(=O)[C@H]1NC(=O)COc1ccccc1`: the GI50 in the experiment with DLD-1 is 11.1 µM (inactive); in the experiment with DMS-114, 19 µM (inactive); with DMS-273 it was 17.4 µM (inactive); with HOP-18 it was 28 µM (inactive); in the experiment with LXFL 529, 5.66 µM (inactive); in the experiment on M19-MEL, 17.9 µM (inactive). In the experiment on RXF 631, the GI50 was 17.5 µM (inactive).
For the molecule `Nc1ccc(C(=O)/C=C/c2ccccc2O)cc1`, the GI50 was > 100 µM (inactive) with DLD-1; > 10 µM (inactive) in the experiment with DMS-273; > 100 µM (inactive) in the experiment on LXFL 529; > 100 µM (inactive) with M19-MEL; > 100 µM (inactive) in the experiment on RXF 631.
In the case of `CN(C)CC/[N+]([O-])=C(/c1ccccc1)C12CC3CC(CC(C3)C1)C2`, the GI50 was 16.1 µM (inactive) in the experiment with DLD-1; 20.2 µM (inactive) in the experiment on DMS-114; 20.9 µM (inactive) in the experiment with HOP-18; 24 µM (inactive) in the experiment on LXFL 529; 13.8 µM (inactive) in the experiment with M19-MEL; 14 µM (inactive) in the experiment with RXF 631.
Turning to `O=C(CC(=O)C1CCOC1=O)C(=O)Nc1ccc(Cl)cc1` (centres undefined), the GI50 in the experiment on DLD-1, in the experiment on DMS-114, with DMS-273, in the experiment on LXFL 529, with M19-MEL and with RXF 631 was > 100 µM (inactive) throughout.
Take `Fc1ccc2c(c1)SC1Oc3ccccc3-c3c1c-2nn3-c1ccccc1` (centres undefined): the GI50 was > 100 µM (inactive) in the experiment on DLD-1; > 100 µM (inactive) in the experiment on DMS-114; > 100 µM (inactive) in the experiment on DMS-273; 27 µM (inactive) in the experiment on HOP-18; > 100 µM (inactive) in the experiment with LXFL 529; > 100 µM (inactive) in the experiment with M19-MEL. In addition, in the experiment with RXF 631, the GI50 was 7.69 µM (inactive).
For the molecule `[O-][n+]1c(-c2ccccc2)c2nc3ccccc3nc2c2ccccc21`, the GI50 with DLD-1 was > 100 µM (inactive); in the experiment with DMS-114, > 100 µM (inactive); in the experiment with DMS-273 it was > 100 µM (inactive); in the experiment with LXFL 529, 7.78 µM (inactive); in the experiment on M19-MEL, > 100 µM (inactive); in the experiment with RXF 631 it was > 100 µM (inactive).
On to `O=C1CCCC/C1=C1\C(=O)Nc2cc(F)ccc21`, for which the GI50 with DLD-1, in the experiment on DMS-114, with DMS-273, in the experiment on HOP-18, in the experiment with LXFL 529 and in the experiment on M19-MEL was > 100 µM (inactive) each time.
For `COc1ccc(CN2CC(C)(C)C2=O)c(OC)c1`, the GI50 in the experiment on DMS-114, in the experiment on DMS-273, in the experiment with HOP-18, in the experiment with M19-MEL and in the experiment on RXF 631 was > 100 µM (inactive) in each case.
On to `Clc1ccccc1C1=NN(c2ccccc2)C2c3cc(Br)ccc3OCC12` (centres undefined), for which the GI50 with DLD-1, with DMS-114, in the experiment on DMS-273, with HOP-18, with LXFL 529 and in the experiment on M19-MEL was > 100 µM (inactive) in each case.
For the molecule `Cc1ccc(S(=O)(=O)c2ccccc2[N+](=O)[O-])cc1`, the GI50 was > 100 µM (inactive) in the experiment with DLD-1; 44.6 µM (inactive) in the experiment on DMS-114; > 100 µM (inactive) in the experiment on DMS-273; > 100 µM (inactive) with LXFL 529; > 100 µM (inactive) in the experiment with M19-MEL; 49.1 µM (inactive) in the experiment on RXF 631.
In the case of `O=C(O)c1ccc(O)c(/N=N/c2cc(S(=O)(=O)O)c3ccccc3c2O)c1`, the GI50 with DLD-1 was > 100 µM (inactive); with DMS-114, 82.6 µM (inactive); in the experiment on DMS-273, > 100 µM (inactive); in the experiment with M19-MEL, 55.6 µM (inactive); in the experiment with RXF 631, > 100 µM (inactive).
For the molecule `CCOC(=O)NC(=O)c1cn(C2OC(CO)C(O)C2O)c(=O)[nH]c1=O` (centres undefined), the GI50 in the experiment on DLD-1, in the experiment on DMS-114, with DMS-273, in the experiment with LXFL 529, with M19-MEL and in the experiment on RXF 631 was > 100 µM (inactive) each time.
As for `COc1ccccc1C(=O)N(Cc1ccccc1)c1ccc(Cl)c(C(=O)OC(C)C)c1`, the GI50 with BT-549 is 34.4 µM (inactive); in the experiment on DLD-1, 18.1 µM (inactive); in the experiment on DMS-114 it was 12.6 µM (inactive); in the experiment on DMS-273, 5.98 µM (inactive); with HOP-18 it was 14 µM (inactive); in the experiment with LXFL 529, 23 µM (inactive). In addition, the GI50 was 25.8 µM (inactive) in the experiment on M19-MEL, 38.2 µM (inactive) in the experiment on MDA-N and 17 µM (inactive) in the experiment on RXF 631.
As for `COC1=C(N=[N+]=[N-])C(=O)c2ncccc2C1=O`, the GI50 in the experiment on BT-549 was 10.8 µM (inactive); in the experiment with DLD-1, 1.65 µM (inactive); in the experiment with DMS-114, 6.85 µM (inactive); with DMS-273, 12.9 µM (inactive); in the experiment on LXFL 529, 1.72 µM (inactive); in the experiment with M19-MEL it was 1.91 µM (inactive). For the same molecule, the figures for the GI50 in the experiment with MDA-N and with RXF 631 were 1.95 µM (inactive) and 16.3 µM (inactive), respectively.
On to `COc1ccc(C2=NNC(=O)OC2c2ccccc2)cc1` (centres undefined), for which the GI50 in the experiment with DMS-114 was 71.8 µM (inactive); in the experiment with HOP-18, 57.9 µM (inactive); in the experiment on LXFL 529 it was 70 µM (inactive); with M19-MEL, 55.7 µM (inactive); in the experiment on RXF 631 it was > 100 µM (inactive).
With `O=C1OC(O)C(Oc2ccc(Cl)cc2)=C1Cl` (centres undefined), the GI50 in the experiment with DLD-1 was > 100 µM (inactive); in the experiment with DMS-114, 39.1 µM (inactive); in the experiment on DMS-273, > 100 µM (inactive); in the experiment on LXFL 529, > 100 µM (inactive); with M19-MEL, > 100 µM (inactive); with RXF 631 it was > 100 µM (inactive).

Source of the values: ChEMBL document CHEMBL1201862, “PubChem BioAssay data set” (2004).
